Assays:
[1] = Thermogravimetric analysis (TG) in the air; assay type: physicochemical; conditions: for Decomp. Start.: Table 1
[2] = Electron-emitting characteristics of device measured with measurement evaluation apparatus; conditions: Table 1
Source text: FIG. 4 is a schematic block diagram of an arrangement comprising a vacuum chamber that can be used as a measuring system for determining the performance of an electron-emitting device of the type under consideration.
Referring to FIG. 4, those components that are similar to or same as those of FIGS. 1A and 1B are denoted by the same reference symbols. The measuring system includes a vacuum chamber 45 and a vacuum pump 46. An electron-emitting device is placed in the vacuum chamber 45. The device comprises a substrate 1, a pair of device electrodes 2 and 3, an electroconductive thin film 4 and an electron-emitting region 5. Otherwise, the measuring system has a power source 41 for applying a device voltage Vf to the device, an ammeter 40 for metering the device current If running through the thin film 4 between the device electrodes 2 and 3, an anode 44 for capturing the emission current Ie produced by electrons emitted from the electron-emitting region of the device, a high voltage source 43 for applying a voltage to the anode 44 of the measuring system and another ammeter 42 for metering the emission current Ie produced by electrons emitted from the electron-emitting region 5 of the device. For determining the performance of the electron-emitting device, a voltage between 1 and 10 KV may be applied to the anode, which is spaced apart from the electron emitting device by distance H which is between 2 and 8 mm.
The electron-emitting characteristics of the electron-emitting device formed as described above were evaluated by using the measurement evaluation apparatus in FIG. 4. Note that, in this example, the distance between an anode and the electron-emitting device was set to be 4 mm, and the potential of the anode was set to be 1 kV. The degree of vacuum in the vacuum apparatus in measurement of the electron-emitting characteristics was 10^-8 torr.
The measurement evaluation apparatus described above was used, and a device voltage was applied across the electrodes 2 and 3 of the electron-emittingdevice. When a device current If and an emission current Ie flowing at this time were measured, current-voltage characteristics shown in FIG. 5 were obtained. In this device, the emission current Ie began to increase from a device voltage of about 6.3 V, and the device current If became 1.9 mA at the device voltage of 14 V. At this time, the emission current Ie of 0.7 μA was obtained.
The electron-emitting characteristics of the device manufactured as described above were measured. FIG. 4 is a schematic view showing the arrangement of a measurement evaluation apparatus. Reference numerals in FIG. 4 follow the reference numerals in the above examples. Note that, in this example, the distance between an anode and the electron-emitting device was set to be 4 mm, the potential of the anode was set to be 1 KV, and the degree of vacuum in a vacuum apparatus in measurement of the electron-emitting characteristics was set to be 10^-6 torr.
The measurement evaluation apparatus described above was used, and a device voltage was applied across the electrodes 2 and 3 of the electron-emittingdevice. When a device current If and an emission current Ie flowing at this time were measured, current-voltage characteristics shown in FIG. 5 were obtained. In the device in this example, the emission current Ie begun to sharply increase from a device voltage of about 8 V, the device current If and the emission current Ie respectively became 2.3 mA and 1.2 μA at the device voltage of 16 V, and electron-emitting efficiency .eta.=Ie/If (%) was 0.05%.
Note that, in this example, the distance between an anode and the electron-emitting device was set to be 4 mm, the potential of the anode was set to be 1 KV, and the degree of vacuum in a vacuum apparatus in measurement of the electron-emitting characteristics was set to be 10^-7 torr. […]

[3] = water
[4] = scanning type differential thermal analysis in the air
[5] = X-ray diffraction

With `CC(=O)[O-].CC(=O)[O-].NCCCO.NCCCO.[Ni+2]` [NAMP, nickel acetate-bis(3-amino-propanol)] the “temperature at which decomposition ended” value ([1]; TG in the air) was 393 °C.

In the case of `CC(=O)[O-].CC(=O)[O-].CNCCO.CNCCO.[Ni+2]` [NANME, nickel acetate-bis(N-methylethanolamine)], the “temperature at which decomposition ended” value ([1]; TG in the air) is reported as 379 °C.

For “nickel acetate-bis(N-butylethanolamine) [NABE]”, the “temperature at which decomposition ended” value ([1]; TG in the air) was 395 °C.

For `CC(=O)[O-].CC(=O)[O-].CC(O)CN.CC(O)CN.[Ni+2]` (centres unmarked) [NAMiP, nickel acetate-bis(1-amino-2-propanol)], the “temperature at which decomposition ended” value ([1]; TG in the air) was 406 °C.

In the case of “palladium acetate-di(N-butylethanolamine) [PABE]”, the “temperature at which decomposition ended” value ([1]; TG in the air) is reported as 245 °C.

For `CC(=O)[O-].CC(=O)[O-].CNCCO.CNCCO.[Pd+2]` [Ex. 22], the “Decomp. Start.” value [1] was 155 °C, the Ie [2] was 1.3 mA and the Ie/If [2] was 0.045%. For the same compound, the If [2] was 2.9 mA and the Solubility [3] was 16.0 Pdwt %.

With `CC(=O)[O-].CC(=O)[O-].NCCO.NCCO.NCCO.NCCO.[Pd+2]` [PA-ME, palladium acetate-monoethanolamine complex] the decomposition start temperature ([1]; TG in the air) was 100 °C, the sublimation properties ([1]; TG in the air) was “no sublimation properties” and the “temperature at which decomposition ended” value ([1]; TG in the air) was 310 °C. The “residue weight at 350° C., in words” value ([1]; TG in the air, 350° C.) was “equal to a theoretical weight”, the decomposition temperature [4] was 272 °C and the “crystallinity of dried thin film” value [5] was “non-crystallized”.

For “palladium acetate-diethanolamine complex [PA-DE]”, the decomposition start temperature ([1]; TG in the air) was 100 °C, the sublimation properties ([1]; TG in the air) was “no sublimation properties” and the “temperature at which decomposition ended” value ([1]; TG in the air) was 305 °C.

In the case of “palladium acetate bis(dipropylamine) [reference compound]”, the “palladium lost in thermal decomposition” value ([1]; TG in the atmosphere) is reported as 29%, the “weight reduction end temperature” value ([1]; TG in the atmosphere) is reported as 250 °C and the “weight reduction start temperature” value ([1]; TG in the atmosphere) is reported as 122 °C. For the same compound, the “residue weight at 350° C. relative to theoretical weight” value ([1]; TG in the atmosphere, 350° C.) was 71%.

For `CC(=O)[O-].CC(=O)[O-].CC(C)(C)NCCO.CC(C)(C)NCCO.[Pd+2]` [Ex. 26], the “Decomp. Start.” value [1] was 166 °C, the Ie [2] was 1.0 mA and the Ie/If [2] was 0.040%. For the same compound, the If [2] was 2.5 mA and the Solubility [3] was 0.7 Pdwt %.

In the case of `CC(=O)[O-].CC(=O)[O-].CCNCCO.CCNCCO.[Pd+2]` [Ex. 23], the “Decomp. Start.” value [1] is reported as 153 °C, the Ie [2] is reported as 1.1 mA and the Ie/If [2] is reported as 0.042%. It also gave an If [2] of 2.6 mA and a Solubility [3] of 8.4 Pdwt %.

With `NCCO.NCCO.NCCO.O.O.O=C[O-].O=C[O-].[Ni+2]` [NFME, nickel formate-tris(ethanolamine)-2-hydrate] the “temperature at which decomposition ended” value ([1]; TG in the air) was 403 °C.

For `CC(=O)[O-].CC(=O)[O-].CCCNCCO.CCCNCCO.[Pd+2]` [Ex. 24], the “Decomp. Start.” value [1] was 154 °C, the Ie [2] was 1.0 mA and the Ie/If [2] was 0.038%. For the same compound, the If [2] was 2.6 mA and the Solubility [3] was 4.0 Pdwt %.

With `CC(=O)[O-].CC(=O)[O-].CC(C)NCCO.CC(C)NCCO.[Pd+2]` [Ex. 25] the “Decomp. Start.” value [1] was 155 °C, the Ie [2] was 1.1 mA and the Ie/If [2] was 0.039%. For the same compound, the If [2] was 2.8 mA and the Solubility [3] was 3.7 Pdwt %.

For “palladium acetate-bis(N,N-dibutylethanolamine) [PADBE]”, the “temperature at which decomposition ended” value ([1]; TG in the air) was 253 °C.

For `CC(=O)[O-].CC(=O)[O-].NCCCO.NCCCO.NCCCO.NCCCO.[Pd+2]` [Ex. 19], the “Decomp. Start.” value [1] was 173 °C, the Ie [2] was 1.1 mA and the Ie/If [2] was 0.041%. For the same compound, the If [2] was 2.7 mA.

In the case of `CC(=O)[O-].CC(=O)[O-].NCCCCO.NCCCCO.NCCCCO.NCCCCO.[Pd+2]` [Ex. 20], the “Decomp. Start.” value [1] is reported as 186 °C, the Ie/If [2] is reported as 0.052% and the If [2] is reported as 2.3 mA. For the same compound, the Solubility [3] was 10.5 Pdwt %.
